# Test results from patent US20050148534A1, “Small molecule compositions and methods for increasing drug efficiency using compositions thereof” (priority 2003, published 2005).
# Key:
# TK2 = target: T1, TK2 (Homo sapiens, UniProt O00142); parameters: unit not given here; conditions: substrate activity; literature (Johansson et al.; Eriksson et al.; Wang et al.), source per Table 3; cited from earlier work
# T1 sequence (O00142 34-265): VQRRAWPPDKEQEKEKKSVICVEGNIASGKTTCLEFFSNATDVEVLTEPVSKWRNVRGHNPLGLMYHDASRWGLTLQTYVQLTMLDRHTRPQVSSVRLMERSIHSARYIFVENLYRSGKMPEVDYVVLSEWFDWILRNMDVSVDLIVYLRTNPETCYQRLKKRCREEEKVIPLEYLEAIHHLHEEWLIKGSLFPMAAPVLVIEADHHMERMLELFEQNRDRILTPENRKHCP
# [1] = target: deoxycytidine kinase (dCK) (Homo sapiens, UniProt P27707); conditions: cited from earlier work; for dCK: substrate activity, literature (Johansson et al.; Eriksson et al.; Wang et al.), source per Table 3
# tubulin = assay: Fluorescence-based microtubule polymerization assay (MPA); assay type: biochemical; conditions: mean percentage of paclitaxel or vinblastine activity; 0.75-10 micromolar
# Text: Drug-linker constructs may further be screened using functional assays predictive of biological activity. […] Tubulin assembly or inhibition thereof may be monitored by fluorescence using the CytoDYNAMIX Screen™ 10 kit available from Cytoskeleton (1830 S. Acoma St., Denver, Colo.). […] Emission is monitored at 405 nm with excitation at 360 nm. […] Tubulin assembly or inhibition may also be monitored by light scattering which is approximated by the apparent absorption at 350 nm. For paclitaxel drug conjugates BSA is employed to prevent aggregation and glycerol, which is a tubulin polymerization enhancer, is omitted from the kit to increase the signal to noise ratio.
# The assay kit (#BK011) was purchased from Cytoskeleton (Denver, Colo.). The assays were carried out according to the manufacturer's instructions, except that 1 mg/ml BSA (Sigma #A3059) was included in all assays. […] Parent drugs and conjugates were tested at 0.75, 1.5, 3 and 10 micromolar final concentration and results represent a comparison of conjugate and parent drug curves obtained from the linear range of the dose responses.
# deoxycytidine kinase (dCK), sequence (P27707 whole entry, species assumed): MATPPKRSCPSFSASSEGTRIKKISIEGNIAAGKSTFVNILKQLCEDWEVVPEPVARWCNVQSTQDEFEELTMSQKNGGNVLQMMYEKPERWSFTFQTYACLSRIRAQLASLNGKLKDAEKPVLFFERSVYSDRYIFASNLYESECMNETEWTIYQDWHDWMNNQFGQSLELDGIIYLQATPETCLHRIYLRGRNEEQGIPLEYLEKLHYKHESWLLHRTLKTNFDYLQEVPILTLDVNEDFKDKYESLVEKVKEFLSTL
Molecule,TK2 (TK2),dCK [1],other results
"Nc1nc(=O)n([C@H]2C[C@H](O)[C@@H](CO)O2)cc1F [R2 = F, X = C]",90,20,
"Nc1cn([C@@H]2O[C@H](CO)[C@@H](O)[C@H]2O)c(=O)[nH]c1=O [R2 = NH2, R4 = H, R3 = OH, 5-amino-uridine]",,,activity towards dCK [1]: 17%
"Nc1ccn([C@H]2C[C@H](F)[C@@H](CO)O2)c(=O)n1 [R4 = H, R5 = H, R3 = F]",<1,60,
CC(=O)O[C@H]1C(=O)[C@]2(C)[C@@H](OC(=O)NCCCCCCN)C[C@H]3OC[C@@]3(OC(C)=O)[C@H]2[C@H](OC(=O)c2ccccc2)[C@]2(O)C[C@H](OC(=O)[C@H](O)[C@@H](NC(=O)c3ccccc3)c3ccccc3)C(C)=C1C2(C)C [PXL-7Ca-ALK(6)-NH2],,,Ave. MPA Act (tubulin): A (A<60)
"Nc1ccn([C@H]2CC[C@@H](CO)O2)c(=O)n1 [R4 = H, R5 = H, R3 = H (ddCy, Zalcitabine)]",<1,30,
"Nc1nc(=O)n([C@H]2C[C@H](O)[C@@H](CO)O2)cc1-c1ccccn1 [R2 = 2-pyridyl, X = C]",7,<1,
CC[C@]1(O)C[C@@H]2CN(CCc3c([nH]c4ccccc34)[C@@](C(=O)OC)(c3cc4c(cc3OC)N(C)[C@H]3[C@@](O)(C(=O)OC)[C@H](O)[C@]5(CC)C=CCN6CC[C@]43[C@@H]65)C2)C1 [Desacetyl vinblastine],,,Ave. MPA Act (tubulin): C (C>100)
CC[C@]1(O)C[C@@H]2CN(CCc3c([nH]c4ccccc34)[C@@](C(=O)OC)(c3cc4c(cc3OC)N(C)[C@H]3[C@@](O)(C(=O)NCCCCCCCCN)[C@H](O)[C@]5(CC)C=CCN6CC[C@]43[C@@H]65)C2)C1 [VBL-3Am-ALK(8)-NH2],,,Ave. MPA Act (tubulin): B (B=60-100)
Cc1cn([C@@H]2C[C@H](O)[C@@H](CO)O2)c(=O)[nH]c1=O [α-D-Thy],2.4,,
"Nc1nc(=O)n([C@H]2C[C@H](O)[C@@H](CO)O2)cc1-c1cccnc1 [R2 = 3-pyridyl, X = C]",<1,4,
Cc1cn([C@H]2C[C@@H](O)[C@H](CO)O2)c(=O)[nH]c1=O [α-L-Thy],1.5,,
CC[C@]1(O)C[C@@H]2CN(CCc3c([nH]c4ccccc34)[C@@](C(=O)OC)(c3cc4c(cc3OC)N(C)[C@H]3[C@@](O)(C(=O)NN)[C@H](O)[C@]5(CC)C=CCN6CC[C@]43[C@@H]65)C2)C1 [Desacetylvinblastine monohydrazine],,,Ave. MPA Act (tubulin): C (C>100)
"Nc1nc(=O)n([C@H]2C[C@H](O)[C@@H](CO)O2)cc1C1CC1 [R2 = cyclopropyl, X = C]",<1,20,
CC[C@]1(O)C[C@@H]2CN(CCc3c([nH]c4ccccc34)[C@@](C(=O)OC)(c3cc4c(cc3OC)N(C)[C@H]3[C@@](O)(C(=O)NCCCCCCNC(=O)OC(C)(C)C)[C@H](O)[C@]5(CC)C=CCN6CC[C@]43[C@@H]65)C2)C1 [VBL-3Am-ALK(6)-NH(B)],,,Ave. MPA Act (tubulin): A (A<60)
"O=c1ccn([C@@H]2O[C@H](CO)[C@@H](O)[C@H]2O)c(=O)[nH]1 [R2 = H, R5 = OH (araU), araU]",20,,
CC#Cc1cn([C@@H]2O[C@H](CO)[C@@H](O)[C@@H]2O)c(=O)[nH]c1=O,30,,
"Nc1ccn([C@@H]2O[C@H](CO)[C@@H](O)[C@H]2F)c(=O)n1 [R4 = F, R5 = H, R3 = OH]",30,300,
CC(=O)O[C@H]1C(=O)[C@]2(C)[C@@H](OC(=O)NCCCCCCn3c(=O)c(C)cn([C@H]4C[C@H](O)[C@@H](COP(=O)(O)O)O4)c3=O)C[C@H]3OC[C@@]3(OC(C)=O)[C@H]2[C@H](OC(=O)c2ccccc2)[C@]2(O)C[C@H](OC(=O)[C@H](O)[C@@H](NC(=O)c3ccccc3)c3ccccc3)C(C)=C1C2(C)C [PXL-7Ca-ALK(6)-N3-PhTHY],,,Ave. MPA Act (tubulin): B (B=60-100)
CC[C@]1(O)C[C@@H]2CN(CCc3c([nH]c4ccccc34)[C@@](C(=O)OC)(c3cc4c(cc3OC)N(C)[C@H]3[C@@](O)(C(=O)NCCCCCCCCCCCCNC(=O)OC(C)(C)C)[C@H](O)[C@]5(CC)C=CCN6CC[C@]43[C@@H]65)C2)C1 [VBL-3Am-ALK(12)-NH(B)],,,Ave. MPA Act (tubulin): A (A<60)
CC[C@]1(O)C[C@@H]2CN(CCc3c([nH]c4ccccc34)[C@@](C(=O)OC)(c3cc4c(cc3OC)N(C)[C@H]3[C@@](O)(C(=O)NCCCCCCN)[C@H](O)[C@]5(CC)C=CCN6CC[C@]43[C@@H]65)C2)C1 [VBL-3Am-ALK(6)-NH2],,,Ave. MPA Act (tubulin): C (C>100)
"Nc1ccn([C@H]2CC[C@@H](CO)O2)c(=O)n1 [β-ddC(2′,3′-dideoxyC), 2′,3′-dideoxyC]",,7.1,
CC(=O)O[C@H]1C(=O)[C@]2(C)[C@@H](OC(=O)CCCCCN)C[C@H]3OC[C@@]3(OC(C)=O)[C@H]2[C@H](OC(=O)c2ccccc2)[C@]2(O)C[C@H](OC(=O)[C@H](O)[C@@H](NC(=O)c3ccccc3)c3ccccc3)C(C)=C1C2(C)C [PXL-7Es-ALK(5)-NH2],,,Ave. MPA Act (tubulin): A (A<60)
"Cc1cn([C@@H]2O[C@H](CO)[C@@H](O)[C@@H]2O)c(=O)[nH]c1=O [R2 = CH3, R5 = OH (araT), araT]",60,,

Molecule,TK2 (TK2),dCK [1],other results
Nc1ccn([C@@H]2C[C@H](O)[C@@H](CO)O2)c(=O)n1 [α-D-dC],1.8,,
(±)-Cytallene,<1,20,
"O=c1[nH]c(=O)n([C@@H]2O[C@H](CO)[C@@H](O)[C@@H]2O)cc1C1CC1 [R2 = cyclopropyl, R5 = OH]",15,,
"Cc1cn([C@H]2C[C@H](O)[C@@H](CO)O2)c(=O)nc1N [R2 = CH3, X = C]",40,,
"O=c1[nH]c(=O)n([C@@H]2O[C@H](CO)[C@@H](O)[C@@H]2O)cc1-c1cccs1 [R2 = 2-thienyl, R5 = OH]",6,,
"Nc1nc(=O)n([C@H]2C[C@H](O)[C@@H](CO)O2)cc1-c1ccoc1 [R2 = 3-furyl, X = C]",50,<1,
"Nc1nc(=O)n([C@H]2C[C@H](O)[C@@H](CO)O2)cc1Br [R2 = Br, X = C]",40,20,
CC(=O)O[C@@]12CO[C@@H]1C[C@H](O)[C@@]1(C)C(=O)[C@H](OC(=O)CCCCCCNC(=O)OCc3ccccc3)C3=C(C)[C@@H](OC(=O)[C@H](O)[C@@H](NC(=O)c4ccccc4)c4ccccc4)C[C@@](O)([C@@H](OC(=O)c4ccccc4)[C@H]21)C3(C)C [PXL-10Es-Alk(6)-NH(Z)],,,Ave. MPA Act (tubulin): A (A<60)
Nc1ccn(C2CC(O)C(CO)O2)c(=O)n1 [α-L-dC],0.4,,
"Nc1nc(=O)n([C@H]2C[C@H](O)[C@@H](CO)O2)cc1-c1ccco1 [R2 = 2-furyl, X = C]",10,3,
"Nc1nc(=O)n([C@H]2C[C@H](O)[C@@H](CO)O2)cc1-c1ccsc1 [R2 = 3-thienyl, X = C]",30,<1,
"Nc1ccn([C@@H]2O[C@H](CO)[C@@H](O)[C@H]2O)c(=O)n1 [R4 = OH, R5 = H, R3 = OH]",<1,,
Nc1ccn([C@@H]2C[C@@H](O)[C@H](CO)O2)c(=O)n1 [β-L-dC],70,,
CC[C@]1(O)C[C@@H]2CN(CCc3c([nH]c4ccccc34)[C@@](C(=O)OC)(c3cc4c(cc3OC)N(C)[C@H]3[C@@](O)(C(=O)NCCCCCCCCCCCCN)[C@H](O)[C@]5(CC)C=CCN6CC[C@]43[C@@H]65)C2)C1 [VBL-3Am-ALK(12)-NH2],,,Ave. MPA Act (tubulin): B (B=60-100)
"Nc1nc(=O)n([C@H]2C[C@H](O)[C@@H](CO)O2)cc1-c1ccncc1 [R2 = 4-pyridyl, X = C]",2,5,
C[C@H]1C=C[C@@H](CO)O1,<1,4,
Cc1cn([C@@H]2C[C@@H](O)[C@H](CO)O2)c(=O)[nH]c1=O [β-L-Thy],60,0.8,
Cc1cn(C2CCC(CO)O2)c(=O)[nH]c1=O (stereo not drawn) [α-ddT],9.8,,
4-deacetyl-3-de-(methoxycarbonyl)-vinblastin-3-yl-N-{N′-Boc-2-[2-[2-[2-ethoxy]ethoxy]ethoxy]ethylamino}-aminocarbonyl) [VBL-3Am-PEG(11)-NH(B)],,,Ave. MPA Act (tubulin): B (B=60-100)
CC[C@]1(O)C[C@@H]2CN(CCc3c([nH]c4ccccc34)[C@@](C(=O)OC)(c3cc4c(cc3OC)N(C)[C@H]3[C@@](O)(C(=O)NCCCCCCn5c(=O)c(C)cn([C@H]6C[C@H](O)[C@@H](COP(=O)(O)O)O6)c5=O)[C@H](O)[C@]5(CC)C=CCN6CC[C@]43[C@@H]65)C2)C1 [VBL-3Am-ALK(6)-N3-PhTHY],,,Ave. MPA Act (tubulin): C (C>100)
"Nc1nc(=O)n([C@H]2C[C@H](O)[C@@H](CO)O2)cc1-c1cccs1 [R2 = 2-thienyl, X = C]",30,2,
Nc1nc(Cl)nc2c1ncn2C1CC(CO)C(CO)O1 (centres unmarked),,40,
"Cc1cn([C@H]2CC[C@@H](CO)O2)c(=O)[nH]c1=O [β-ddT(3′-deoxyThy), 3′-deoxyThy]",3.2,,
